Laboratory results published in patent EP1028734B1, “USE OF SPECIFIC STEADY-STATE R-TYPE CALCIUM CHANNEL BLOCKERS” (priority 1997, dated 1999).
Entries after “also recorded” stand apart in the source; their conditions may differ.

Key:
[1] = tested on: TTX-sensitive fast Na^+ current; assay: whole-cell voltage clamp, TTX-sensitive fast Na+ current in single heart cell (MV8608); format: cell-based; settings: 10^-11M to 10^-7M, n=5
Protocol: (§1) Single cells of different types in culture were prepared from biopsies of human, chick and rabbit. Known and accepted methods for the isolation of fast Na^+ current, T, L and R-type Ca^2+ channels as well as delayed outward K^+ current were used (Bkaily 1994, supra).
(§2) The compounds to be tested are added to the appropriate extracellular solution after recording a stable ionic current or normal steady-state level of [Ca]n and [Ca]n The effect of different concentrations of compounds are tested on the different type of current and [Ca]i of the different cell types. The effect of each concentration of the compounds in function of the time of exposure are then determined. Once the steady-state effect is reached, the second concentration is added, etc.
In one series of experiments (n=5), the effect of different concentrations of MV8608 (10^-11M to 10^-7M) on the TTX-sensitive fast Na^+ current were tested using the whole-cell voltage clamp technique and experimental conditions reported elsewhere (Bkaily et al., 1988, supra; 1993, supra).

T-type Ca^2+ current = assay: whole-cell voltage clamp, T-type Ca2+ current in heart cells; format: cell-based; settings: 10^-9M to 10^-7M, n=7
Protocol: as §1, §2
In another series of experiments (n=7), the effect of different concentrations of MV8608 were tested on the T-type Ca^2+ current (lCa) using the whole-cell voltage clamp technique and classical experimental conditions described elsewhere by the inventors (Bkaily G. et al., 1991, supra; 1992, supra; 1993, supra). […] As it can be seen in that figure, the inset effect of MV8608 in T-type ICa is immediate.

R-type Ca^2+ channel = assay: confocal Fluo-3 3-dimension measurement of cytosolic [Ca]c and nuclear [Ca]n; format: cell-based, chick, human
[2] = tested on: double-perfused mesenteric bed of the rat; assay: double-perfused mesenteric bed of the rat
Source text: The inhibitory properties of MV8608 are specific for PAF as the response to ACh (arterial) and Angll (venous) are unaffected by the pregnane-containing moiety.

[3] = tested on: human aortic vascular smooth muscle cell line; assay: spontaneous proliferation of human aortic vascular smooth muscle cell line; format: cell-based; settings: MV8608 10^-8M, MV8612 10^-8M, nifedipine 10^-7M, Figure 28
mouse paw oedema = format: in vivo, mice; settings: i.p.
Protocol: In this experiment (N =5 to 6 animals per group), the anti-oedemagenic action of compounds MV 8608 and MV 8612 against bradykinin and several mediators which are reported to be involved in the inflammatory processes, was evaluated. The procedures used to perform these experiments have been reported elsewhere (Neves et al., 1993, Eur. J. Pharmacol. 243:213-219; Campos et al., 1995, Br. J. Pharmacol. 114:1005-1013; Campos et al., 1996, Br. J. Pharmacol. 117:793-798; Eur. J. Pharmacol. 316:227-286). […] As reported previously, in rats treated […] prior to a systemic injection of LPS, both B1 and B2 kinin selective agonists caused marked oedema formation (Figures 37C and D (Campos et al., 1996, supra)).
When tested in mice, MV 8612 (40 to 160 nmol/paw) inhibited bradykinin and carrageenan-induced paw oedema in mice in a dose-dependent manner (Figures 46A and B).

murine model of pleurisy = format: in vivo, mice
Protocol: (§3) To assess further the anti-inflammatory action of MV 8612 and MV 8608, their effects against the inflammatory responses caused by several mediators of inflammation in a murine model of pleurisy were tested (Saleh et al., 1996, Br. J. Pharmacol 118:811-819). In addition, both compounds were tested against the increase of vascular permeability caused by bradykinin in the rat skin (Neves et al., 1993b, Phytotherapy Research. 7:356-362).

[4] = bradykinin-induced skin vascular permeability in rats; format: in vivo, rat
Protocol: as §3

[5] = writhe responses in mice (acetic acid, acetylcholine, kaolin); format: in vivo; settings: 2.7 to 27 mol/kg, i.p.
Source text: The antinociceptive actions of compound MV 8612 and MV 8608 were investigated in different models of nociception in mice as reported previously (Vaz et al., 1996, J. Pharmacol. Exp. Ther. 278:304-312).

rat uterus = settings: Calixto et al., 1987; cited from earlier work
[6] = MV 8612 30 and 60, MV 8608 30, i.p.

Substance: (15R, 16R, 20S)-14, 16:15,20:16,21-triepoxi-15,16-seco 14β, 17α-pregn-5-ene-3β, 15-diol [MV8608]
- effect on the TTX-sensitive fast Na^+ current [1]: no effect
- T-type ICa amplitude (T-type Ca^2+ current): no effect; also recorded: relative weak depressing effect
- sustained increase of [Ca]c and [Ca]n induced with high concentration of PAF (10^-7M) (R-type Ca^2+ channel; 10^-6M of compound, back to the control level, Figure 29B): significantly decrease
- cytosolic and nuclear Ca^2+ sustained overload induced by 30mM KCl and PAF (R-type Ca^2+ channel; 10^-7M of compound, nifedipine present): blocked both the cytosolic and nuclear Ca^2+ sustained overload
- prevention of stimulation of the R-type Ca^2+ channel by sustained depolarization (R-type Ca^2+ channel; 10^-8 M and 10^-7 M, dose-dependent): prevented
- prevention of high PAF (10^-7 M) action (R-type Ca^2+ channel; 10^-9M of compound): succeeded in preventing
- sustained depolarization induced sustained increase of [Ca]c and [Ca]n (R-type Ca^2+ channel; heart cells, Figure 29 panel A): blocked completely
- response to ACh (arterial) and AngII (venous) [2]: unaffected
- PAF induced arterial vasodilatation and venconstriction ([2]; 1 µM, Figure 24): blocked
- PAF-induced responses ([2]; concentration series): concentration-dependent inhibition
- spontaneous proliferation [3]: significantly decreased
- paw oedema induced by histamine (mouse paw oedema): dose-related inhibition
- paw oedema induced by serotonin (mouse paw oedema): dose-related inhibition
- bradykinin-induced paw oedema (mouse paw oedema; 30 min prior): unaffected
- mononuclear cells influx, intrapleural PAF (murine model of pleurisy; 30, i.p.): antagonised significantly
- plasma extravasation, intrapleural PAF (murine model of pleurisy; 30, i.p.): antagonised significantly
- neutrophils cells, intrapleural carrageenan (murine model of pleurisy; [6]): inhibited significantly
- total cells, intrapleural carrageenan (murine model of pleurisy; [6]): inhibited significantly
- increase of vascular permeability caused by bradykinin in the rat skin [4]: antagonised in a dose-related manner
- antinociceptive action in the same model of pain (writhing) [5]: only partial or even no antinociceptive action
- contraction of rat uterus induced by BK (rat uterus): selective in its ability to inhibit
